According to ChEMBL document CHEMBL5365394, “Design, synthesis and biological evaluation of novel spiro-quinazolinone derivatives as chitin synthase inhibitors and antifungal agents” (Eur J Med Chem, 2023):
≈ marks a conversion by molar mass, not a printed value. Values belong to the molecule of their own block, whether it stands above or below them. Calls of active or inactive are those of the source. The calls are words filed in the database; no cut-off is given here.

Key:
[1] = Inhibition of Saccharomyces cerevisiae CGMCC2.145 chitin synthase […] by TMB based microplate reader analysis
Cryptococcus neoformans [2] = experiment: Synergistic antifungal activity against Cryptococcus neoformans ATCC 32719 assessed as fluconazole MIC incubated for 24 hrs in by checkerboard broth microdilution method; assay type: functional
Aspergillus flavus [3] = experiment: Synergistic antifungal activity against Aspergillus flavus ATCC 16870 assessed as fluconazole MIC incubated for 24 hrs in by checkerboard broth microdilution method; assay type: functional
Candida tropicalis [4] = experiment: Non competitive inhibition of Candida tropicalis ATCC 750 chitin synthase using UDP-GlcNAc as substrate assessed as Km at 0.05 to 0.15 mM incubated for 1 hr by Michaelis-Menten analysis; settings: dose 0.05-0.15 mM
[5] = Cytotoxicity against human A549 cells assessed as cell viability at 8 ug/ml incubated for 24 hrs by CCK-8 assay relative to control; assay type: toxicity, cell-based; settings: at 8 µg/mL, read-out: Activity
Aspergillus flavus [6] = experiment: Antifungal activity against Aspergillus flavus ATCC 16870 assessed as fungal growth inhibition incubated for 24 hrs by two-fold serial dilution method; assay type: functional
Candida albicans [7] = experiment: Synergistic antifungal activity against Candida albicans ATCC 76615 assessed as fractional inhibitory concentration index incubated for 24 hrs in presence of fluconazole by checkerboard broth microdilution method; assay type: functional
Aspergillus flavus [8] = experiment: Antifungal activity against Fluconazole-resistant Aspergillus flavus ATCC 16870R assessed as fungal growth inhibition; assay type: functional
Cryptococcus neoformans [9] = experiment: Synergistic antifungal activity against Cryptococcus neoformans ATCC 32719 assessed as fractional inhibitory concentration index incubated for 24 hrs in presence of polyoxin B by checkerboard broth microdilution method; assay type: functional
Cryptococcus neoformans [10] = experiment: Synergistic antifungal activity against Cryptococcus neoformans ATCC 32719 assessed as fractional inhibitory concentration index incubated for 24 hrs in presence of fluconazole by checkerboard broth microdilution method; assay type: functional
Aspergillus fumigatus [11] = experiment: Synergistic antifungal activity against Aspergillus fumigatus GIMCC 3.19 assessed as fluconazole MIC incubated for 24 hrs in by checkerboard broth microdilution method; assay type: functional
Cryptococcus neoformans [12] = experiment: Antifungal activity against Cryptococcus neoformans ATCC 32719 assessed as inhibition of cell wall synthesis incubated for 24 hrs in presence of sorbitol; assay type: functional
Candida tropicalis [13] = experiment: Non competitive inhibition of Candida tropicalis ATCC 750 chitin synthase using UDP-GlcNAc as substrate assessed as Vmax at 0.05 to 0.15 mM incubated for 1 hr by Michaelis-Menten analysis; settings: dose 0.05-0.15 mM
Candida albicans [14] = experiment: Antifungal activity against Fluconazole-resistant Candida albicans ATCC 76615R assessed as fungal growth inhibition; assay type: functional
[15] = Non competitive inhibition of Candida tropicalis ATCC 750 chitin synthase using UDP-GlcNAc as substrate assessed as inhibition constant incubated for 1 hr by double reciprocal plot analysis
Candida albicans [16] = experiment: Synergistic antifungal activity against Candida albicans ATCC 76615 assessed as polyoxin B MIC incubated for 24 hrs by checkerboard broth microdilution method; assay type: functional
Aspergillus flavus [17] = experiment: Synergistic antifungal activity against Aspergillus flavus ATCC 16870 assessed as fractional inhibitory concentration index incubated for 24 hrs in presence of polyoxin B by checkerboard broth microdilution method; assay type: functional
Candida albicans [18] = experiment: Antifungal activity against Candida albicans ATCC 76615 assessed as inhibition of cell wall synthesis incubated for 24 hrs in presence of sorbitol; assay type: functional
Aspergillus fumigatus [19] = experiment: Antifungal activity against Fluconazole-resistant Aspergillus fumigatus GIMCC 3.19R assessed as fungal growth inhibition; assay type: functional
Candida albicans [20] = experiment: Antifungal activity against Micafungin-resistant Candida albicans ATCC 76615R assessed as fungal growth inhibition; assay type: functional
[21] = Cytotoxicity against human A549 cells assessed as cell viability at 64 ug/ml incubated for 24 hrs by CCK-8 assay relative to control; assay type: toxicity, cell-based; settings: at 64 µg/mL, read-out: Activity
Aspergillus fumigatus [22] = experiment: Antifungal activity against Aspergillus fumigatus GIMCC 3.19 assessed as inhibition of cell wall synthesis incubated for 24 hrs in presence of sorbitol; assay type: functional
[23] = Inhibition of Candida tropicalis ATCC 750 chitin synthase using UDP-GlcNAc as substrate incubated for 1 hr by absorbance based assay
Candida albicans [24] = experiment: Antifungal activity against Candida albicans ATCC 76615 assessed as fungal growth inhibition incubated for 24 hrs by two-fold serial dilution method; assay type: functional
Aspergillus flavus [25] = experiment: Antifungal activity against Aspergillus flavus ATCC 16870 assessed as inhibition of cell wall synthesis incubated for 24 hrs in absence of sorbitol; assay type: functional
[26] = Cytotoxicity against human A549 cells assessed as cell viability at 4 ug/ml incubated for 24 hrs by CCK-8 assay relative to control; assay type: toxicity, cell-based; settings: at 4 µg/mL, read-out: Activity
Cryptococcus neoformans [27] = experiment: Antifungal activity against Fluconazole-resistant Cryptococcus neoformans ATCC 32719R assessed as fungal growth inhibition; assay type: functional
Candida tropicalis [28] = experiment: Non competitive inhibition of Candida tropicalis ATCC 750 chitin synthase using UDP-GlcNAc as substrate assessed as decrease in Vmax with constant Km at 0.05 to 0.15 mM incubated for 1 hr by Michaelis-Menten analysis; settings: dose 0.05-0.15 mM
Aspergillus fumigatus [29] = experiment: Synergistic antifungal activity against Aspergillus fumigatus GIMCC 3.19 assessed as fractional inhibitory concentration index incubated for 24 hrs in presence of polyoxin B by checkerboard broth microdilution method; assay type: functional
[30] = Cytotoxicity against human A549 cells assessed as cell viability at 32 ug/ml incubated for 24 hrs by CCK-8 assay relative to control; assay type: toxicity, cell-based; settings: at 32 µg/mL, read-out: Activity
[31] = Cytotoxicity against human A549 cells assessed as cell viability at 16 ug/ml incubated for 24 hrs by CCK-8 assay relative to control; assay type: toxicity, cell-based; settings: at 16 µg/mL, read-out: Activity
Cryptococcus neoformans [32] = experiment: Synergistic antifungal activity against Cryptococcus neoformans ATCC 32719 assessed as polyoxin B MIC incubated for 24 hrs in by checkerboard broth microdilution method; assay type: functional
Cryptococcus neoformans [33] = experiment: Antifungal activity against Cryptococcus neoformans ATCC 32719 assessed as inhibition of cell wall synthesis incubated for 24 hrs in absence of sorbitol; assay type: functional
Aspergillus flavus [34] = experiment: Antifungal activity against Aspergillus flavus ATCC 16870 assessed as inhibition of cell wall synthesis incubated for 24 hrs in presence of sorbitol; assay type: functional
A549 = experiment: Cytotoxicity against human A549 cells assessed as cell viability incubated for 24 hrs at 128 ug/ml by CCK-8 assay relative to control; settings: dose 128 µg/ml
Aspergillus flavus [35] = experiment: Synergistic antifungal activity against Aspergillus flavus ATCC 16870 assessed as fractional inhibitory concentration index incubated for 24 hrs in presence of fluconazole by checkerboard broth microdilution method; assay type: functional
Cryptococcus neoformans [36] = experiment: Antifungal activity against Cryptococcus neoformans ATCC 32719 assessed as fungal growth inhibition incubated for 24 hrs by two-fold serial dilution method; assay type: functional
Candida albicans [37] = experiment: Synergistic antifungal activity against Candida albicans ATCC 76615 assessed as fractional inhibitory concentration index incubated for 24 hrs in presence of polyoxin B by checkerboard broth microdilution method; assay type: functional
Aspergillus fumigatus [38] = experiment: Synergistic antifungal activity against Aspergillus fumigatus GIMCC 3.19 assessed as fractional inhibitory concentration index incubated for 24 hrs in presence of fluconazole by checkerboard broth microdilution method; assay type: functional
Candida tropicalis [39] = experiment: Inhibition of Candida tropicalis ATCC 750 chitin synthase using […] as substrate at 300 ug/ml incubated for 1 hr by absorbance based assay relative to control; settings: dose 300.0 µg/ml
Aspergillus fumigatus [40] = experiment: Antifungal activity against Aspergillus fumigatus GIMCC 3.19 assessed as inhibition of cell wall synthesis incubated for 24 hrs in absence of sorbitol; assay type: functional
Aspergillus fumigatus [41] = experiment: Antifungal activity against Aspergillus fumigatus GIMCC 3.19 assessed as fungal growth inhibition incubated for 24 hrs by two-fold serial dilution method; assay type: functional
Candida albicans [42] = experiment: Synergistic antifungal activity against Candida albicans ATCC 76615 assessed as fluconazole MIC incubated for 24 hrs in by checkerboard broth microdilution method; assay type: functional
Aspergillus fumigatus [43] = experiment: Synergistic antifungal activity against Aspergillus fumigatus GIMCC 3.19 assessed as polyoxin B MIC incubated for 24 hrs by checkerboard broth microdilution method; assay type: functional
Candida albicans [44] = experiment: Antifungal activity against Candida albicans ATCC 76615 assessed as inhibition of cell wall synthesis incubated for 24 hrs in absence of sorbitol; assay type: functional
Aspergillus flavus [45] = experiment: Synergistic antifungal activity against Aspergillus flavus ATCC 16870 assessed as polyoxin B MIC incubated for 24 hrs by checkerboard broth microdilution method; assay type: functional

IC50 [1]: 100 µM
SMILES: O=C(Nc1cccc(C(F)(F)F)c1)C1CCN(CC(=O)N2CCC3(CCNC3=O)CC2)CC1

SMILES: O=C(/C=C/C(=O)Nc1ccc2c(c1)C(=O)NC1(CCSC1)N2)Nc1ccc([N+](=O)[O-])cc1 (stereo unspecified)
MIC (Cryptococcus neoformans [2]): 2 µg/mL
MIC (Aspergillus flavus [3]): 1 µg/mL
Km (Candida tropicalis [4]): 5.18 mM
viability at 24 h, 8 ug/ml [5]: 94.3%
MIC (Aspergillus flavus [6]): 1 µg/mL (≈ 2.21 µM)
fractional inhibitory concentration index (FICI) (Candida albicans [7]): 0.5
MIC (Aspergillus flavus [8]): 8 µg/mL (≈ 17.6 µM)
fractional inhibitory concentration index (FICI) (Cryptococcus neoformans [9]): 0.75
fractional inhibitory concentration index (FICI) (Cryptococcus neoformans [10]): 1
MIC (Aspergillus fumigatus [11]): 4 µg/mL
MIC (Cryptococcus neoformans [12]): 32 µg/mL
Vmax (Candida tropicalis [13]): 1.21 deltaOD/hr
MIC (Candida albicans [14]): 8 µg/mL (≈ 17.6 µM)
Ki [15]: 160 µM
MIC (Candida albicans [16]): 2 µg/mL
fractional inhibitory concentration index (FICI) (Aspergillus flavus [17]): 0.375
MIC (Candida albicans [18]): 64 µg/mL
MIC (Aspergillus fumigatus [19]): 8 µg/mL (≈ 17.6 µM)
MIC (Candida albicans [20]): 8 µg/mL (≈ 17.6 µM)
viability at 24 h, 64 ug/ml [21]: 67.1%
MIC (Aspergillus fumigatus [22]): 128 µg/mL
IC50 [23]: 107 µM
MIC (Candida albicans [24]): 1 µg/mL (≈ 2.21 µM)
MIC (Aspergillus flavus [25]): 4 µg/mL (≈ 8.82 µM)
viability at 24 h, 4 ug/ml [26]: 95.1%
MIC (Cryptococcus neoformans [27]): 4 µg/mL (≈ 8.82 µM)
inhibition (Candida tropicalis [28]): Active
fractional inhibitory concentration index (FICI) (Aspergillus fumigatus [29]): 1
viability at 24 h, 32 ug/ml [30]: 87.8%
viability at 24 h, 16 ug/ml [31]: 94%
MIC (Cryptococcus neoformans [32]): 4 µg/mL
MIC (Cryptococcus neoformans [33]): 4 µg/mL (≈ 8.82 µM)
MIC (Aspergillus flavus [34]): 64 µg/mL
viability (A549): 62.2%
fractional inhibitory concentration index (FICI) (Aspergillus flavus [35]): 0.5
MIC (Cryptococcus neoformans [36]): 2 µg/mL (≈ 4.41 µM)
fractional inhibitory concentration index (FICI) (Candida albicans [37]): 0.75
fractional inhibitory concentration index (FICI) (Aspergillus fumigatus [38]): 0.75
inhibition (Candida tropicalis [39]): 82.3%
MIC (Aspergillus fumigatus [40]): 8 µg/mL (≈ 17.6 µM)
MIC (Aspergillus fumigatus [41]): 2 µg/mL (≈ 4.41 µM)
MIC (Candida albicans [42]): 0.5 µg/mL
MIC (Aspergillus fumigatus [43]): 8 µg/mL
MIC (Candida albicans [44]): 4 µg/mL (≈ 8.82 µM)
MIC (Aspergillus flavus [45]): 2 µg/mL
